Where two headings read alike, the source gives them in different places.
Experiments:
[1] = target: FGFR2-WT (Homo sapiens, UniProt P21802); assay: Phosphorylated FGFR2-WT (pFGFR2-WT) cell assay, KATOIII cells; assay type: cell-based; details: 1 hour incubation, phospho FGFR2 HTRF
In short: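 KATOIII cells treated 1 h at 37 °C with threefold compound dilutions (10 μM to 0.5 nM). Lysate phospho-FGFR2 (Tyr653/654) read by HTRF.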

[2] = target: T1, FGFR2 N549H (Homo sapiens, UniProt P21802, N549H); assay: FGFR mutant enzyme assay (HTRF KinEASE-TK); assay type: biochemical; details: ATP 0.9 uM
T1 construct: biochemical assays using purified intracellular domains of the respective isoforms; purchased Carna Bioscience 08-532
In short: (§1)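 Purified intracellular kinase domains, enzyme pre-incubated 30 min with compound (11-point 1:3 dilutions, typically 10,000-0.17 nM), then ATP plus 0.5 uM TK-peptide, 60 min at room temperature in HEPES pH7.5 with Mg2+/Mn2+. HTRF 665/615 ratio converted to percent of control; IC50 from four-parameter logistic fit.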

[3] = target: T2, FGFR2 V564F (Homo sapiens, UniProt P21802, V564F); assay: FGFR mutant enzyme assay (HTRF KinEASE-TK); assay type: biochemical; details: ATP 1.5 uM
T2 construct: biochemical assays using purified intracellular domains of the respective isoforms; purchased SignalChem Biotech F05-12FG
In short: as §1

[4] = target: T3, FGFR2 V564I (Homo sapiens, UniProt P21802, V564I); assay: FGFR mutant enzyme assay (HTRF KinEASE-TK); assay type: biochemical; details: ATP 0.4 uM
T3 construct: biochemical assays using purified intracellular domains of the respective isoforms; purchased Carna Bioscience 08-546
In short: as §1

[5] = target: T4, FGFR2 (Homo sapiens, UniProt P21802); assay: FGFR wild type enzyme assay (HTRF KinEASE-TK); assay type: biochemical; details: ATP 2 uM
T4 construct: biochemical assays using purified intracellular domains of the respective isoforms; purchased Carna Bioscience 08-134
In short: as §1

[6] = compound table after the examples, read-out: Enz FGFR2

T1 sequence (P21802 399-821 N549H limits assumed): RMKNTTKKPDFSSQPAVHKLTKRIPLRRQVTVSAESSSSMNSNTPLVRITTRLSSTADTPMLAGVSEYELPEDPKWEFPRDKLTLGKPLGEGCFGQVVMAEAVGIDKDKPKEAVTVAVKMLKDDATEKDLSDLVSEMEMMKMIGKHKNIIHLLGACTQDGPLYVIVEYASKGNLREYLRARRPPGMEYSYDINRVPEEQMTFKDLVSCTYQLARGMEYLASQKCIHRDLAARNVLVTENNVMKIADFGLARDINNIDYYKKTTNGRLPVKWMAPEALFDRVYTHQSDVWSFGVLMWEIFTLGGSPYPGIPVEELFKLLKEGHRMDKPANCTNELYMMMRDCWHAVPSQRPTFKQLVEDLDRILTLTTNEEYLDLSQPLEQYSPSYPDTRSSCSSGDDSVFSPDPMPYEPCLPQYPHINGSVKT
T4 sequence (P21802 399-821 limits assumed): as the sequence (P21802 399-821 N549H limits assumed) above, with H151N counted along it
T2 sequence (P21802 399-821 V564F limits assumed): as the sequence (P21802 399-821 N549H limits assumed) above, with H151N, V166F counted along it
T3 sequence (P21802 399-821 V564I limits assumed): as the sequence (P21802 399-821 N549H limits assumed) above, with H151N, V166I counted along it
Chain of FGFR2-WT (P21802 430-767 limits assumed): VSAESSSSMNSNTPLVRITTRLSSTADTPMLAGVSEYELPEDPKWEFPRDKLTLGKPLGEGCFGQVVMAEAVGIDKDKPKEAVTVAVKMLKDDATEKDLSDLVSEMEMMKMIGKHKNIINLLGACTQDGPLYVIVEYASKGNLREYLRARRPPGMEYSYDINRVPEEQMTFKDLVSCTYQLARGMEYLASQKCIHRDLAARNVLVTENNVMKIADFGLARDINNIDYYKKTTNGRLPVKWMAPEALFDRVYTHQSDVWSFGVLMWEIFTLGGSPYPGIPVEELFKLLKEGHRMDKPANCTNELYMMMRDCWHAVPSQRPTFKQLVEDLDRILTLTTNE

| IC50 [1] [nM] | IC50 [2] [nM] | IC50 [3] [nM] | IC50 [4] [nM] | IC50 ([5]; Table 3, read-out: FGFR2 Enz) [nM] | IC50 [5, 6] [nM] | Structure (SMILES) |
| --- | --- | --- | --- | --- | --- | --- |
| 4 | 0.65 | 1.7 | 2 | 0.6 | 0.6 | Cc1c(-c2cc(O[C@H](C)c3ccc(F)cn3)c3c(C#N)cnn3c2)cnn1C1CCN(C(=O)CO)CC1 [Compound 42, (R)-4-(1-(5-fluoropyridin-2-yl)ethoxy)-6-(1-(1-(2-hydroxyacetyl)piperidin-4-yl)-5-methyl-1H-pyrazol-4-yl)pyrazolo[1,5-a]pyridine-3-carbonitrile] |
| 9 | 1 | 3 | 3 | 1 | 1 | Cc1c(-c2cc(O[C@H](C)c3ccc(F)cn3)c3c(C#N)cnn3c2)cnn1C1CCN(C(=O)C2(N)CCC2)CC1 [Compound 43, (R)-6-(1-(1-(1-aminocyclobutane-1-carbonyl)piperidin-4-yl)-5-methyl-1H-pyrazol-4-yl)-4-(1-(5-fluoropyridin-2-yl)ethoxy)pyrazolo[1,5-a]pyridine-3-carbonitrile] |
| 8 | 0.4 | 1 | 1.5 | 0.5 | 0.5 | Cc1c(-c2cc(O[C@H](C)c3ccc(F)cn3)c3c(C#N)cnn3c2)cnn1C1CCN(C(=O)[C@@H](N)C(C)C)CC1 [Compound 44, 6-(1-(1-(L-valyl)piperidin-4-yl)-5-methyl-1H-pyrazol-4-yl)-4-((R)-1-(5-fluoropyridin-2-yl)ethoxy)pyrazolo[1,5-a]pyridine-3-carbonitrile] |
| 60 | 7 | 13 | 23 | 6.5 | 6.5 | Cc1c(-c2cc(O[C@@H](C)c3ccc(F)cn3)c3c(C#N)cnn3c2)cnn1[C@H]1CC[C@H](O)CC1 [Compound 45, 4-((S)-1-(5-fluoropyridin-2-yl)ethoxy)-6-(1-((1r,4S)-4-hydroxycyclohexyl)-5-methyl-1H-pyrazol-4-yl)pyrazolo[1,5-a]pyridine-3-carbonitrile] |
| 3 | 0.3 | 1 | 1 | 0.3 | 0.3 | Cc1c(-c2cc(O[C@H](C)c3ccc(F)cn3)c3c(C#N)cnn3c2)cnn1[C@H]1CC[C@@H](O)CC1 [Compound 46, 4-((R)-1-(5-fluoropyridin-2-yl)ethoxy)-6-(1-((1s,4S)-4-hydroxycyclohexyl)-5-methyl-1H-pyrazol-4-yl)pyrazolo[1,5-a]pyridine-3-carbonitrile] |
| 4 | 0.4 | 1 | 1 | 0.3 | 0.3 | C[C@@H](Oc1cc(-c2cnn(C3CCN(C#N)CC3)c2N)cn2ncc(C#N)c12)c1ccc(F)cn1 [Compound 47, (R)-6-(5-amino-1-(1-cyanopiperidin-4-yl)-1H-pyrazol-4-yl)-4-(1-(5-fluoropyridin-2-yl)ethoxy)pyrazolo[1,5-a]pyridine-3-carbonitrile] |
| 3 | 0.4 | 1 | 1 | 0.4 | 0.4 | Cc1c(-c2cc(O[C@H](C)c3ccc(F)cn3)c3c(C#N)cnn3c2)cnn1[C@H]1CCCN(C(=O)[C@@H](C)O)C1 [Compound 48, 4-((R)-1-(5-fluoropyridin-2-yl)ethoxy)-6-(1-((S)-1-((R)-2-hydroxypropanoyl)piperidin-3-yl)-5-methyl-1H-pyrazol-4-yl)pyrazolo[1,5-a]pyridine-3-carbonitrile] |
| 15 | 3 | 8 | 10 | 2.6 | 2.6 | Cc1c(-c2cc(O[C@H](C)c3ccc(F)cn3)c3c(C#N)cnn3c2)cnn1[C@@H]1CCCN(C(=O)[C@H](C)O)C1 [Compound 49, 4-((R)-1-(5-fluoropyridin-2-yl)ethoxy)-6-(1-((R)-1-((S)-2-hydroxypropanoyl)piperidin-3-yl)-5-methyl-1H-pyrazol-4-yl)pyrazolo[1,5-a]pyridine-3-carbonitrile] |
| 57 | 6 | 11 | 20 | 5.5 | 5.5 | Cc1c(-c2cc(O[C@@H](C)c3ccc(F)cn3)c3c(C#N)cnn3c2)cnn1[C@H]1CC[C@@H](O)CC1 [Compound 50, 4-((S)-1-(5-fluoropyridin-2-yl)ethoxy)-6-(1-((1s,4R)-4-hydroxycyclohexyl)-5-methyl-1H-pyrazol-4-yl)pyrazolo[1,5-a]pyridine-3-carbonitrile] |
| 6.5 | 1 | 2 | 4 | 1 | 1 | Cc1c(-c2cc(OC(C)c3ccc(F)cn3)c3c(C#N)cnn3c2)cnn1[C@H]1CC[C@H](O)CC1 (stereo partly drawn) [Compound 51, 4-(1-(5-fluoropyridin-2-yl)ethoxy)-6-(1-((1r,4r)-4-hydroxycyclohexyl)-5-methyl-1H-pyrazol-4-yl)pyrazolo[1,5-a]pyridine-3-carbonitrile] |
| 6 | 1 | 2.4 | 3 | 0.7 | 0.7 | Cc1c(-c2cc(OC(C)c3ccc(F)cn3)c3c(C#N)cnn3c2)cnn1[C@H]1CC[C@@H](O)CC1 (stereo partly drawn) [Compound 52, 4-(1-(5-fluoropyridin-2-yl)ethoxy)-6-(1-((1s,4s)-4-hydroxycyclohexyl)-5-methyl-1H-pyrazol-4-yl)pyrazolo[1,5-a]pyridine-3-carbonitrile] |
| 3 | 0.5 | 1 | 1.5 | 0.3 | 0.3 | Cc1c(-c2cc(O[C@H](C)c3ccc(F)cn3)c3c(C#N)cnn3c2)cnn1[C@H]1CC[C@H](OC(=O)[C@@H](N)C(C)C)CC1 [Compound 53, (1R,4S)-4-(4-(3-cyano-4-((R)-1-(5-fluoropyridin-2-yl)ethoxy)pyrazolo[1,5-a]pyridin-6-yl)-5-methyl-1H-pyrazol-1-yl)cyclohexyl L-valinate] |
| 12 | 0.5 | 1 | 1 | 0.4 | 0.4 | Cc1c(-c2cc(O[C@H](C)c3cccnc3)c3c(C#N)cnn3c2)cnn1[C@H]1CC[C@H](O)CC1 [Compound 54, 6-(1-((1r,4R)-4-hydroxycyclohexyl)-5-methyl-1H-pyrazol-4-yl)-4-((R)-1-(pyridin-3-yl)ethoxy)pyrazolo[1,5-a]pyridine-3-carbonitrile] |
| 1.6 | 0.13 | 0.3 | 0.6 | 0.2 | 0.2 | C[C@@H](Oc1cc(-c2cnn([C@H]3CC[C@H](O)CC3)c2)cn2ncc(C#N)c12)c1ccc(F)cn1 [Compound 55, 4-((R)-1-(5-fluoropyridin-2-yl)ethoxy)-6-(1-((1r,4R)-4-hydroxycyclohexyl)-1H-pyrazol-4-yl)pyrazolo[1,5-a]pyridine-3-carbonitrile] |
| 3.4 | 0.2 | 0.6 | 1 | 0.2 | 0.2 | C[C@@H](Oc1cc(-c2ccc(N3CCC(O)CC3)nc2)cn2ncc(C#N)c12)c1ccc(F)cn1 [Compound 56, (R)-4-(1-(5-fluoropyridin-2-yl)ethoxy)-6-(6-(4-hydroxypiperidin-1-yl)pyridin-3-yl)pyrazolo[1,5-a]pyridine-3-carbonitrile] |
